Blank lines part the entries; values can stand above or below the molecule they belong to.
Assays:
PabNTD = target: T1, PabNTD (Pyrococcus abyssi, UniProt Q9UZ14, K121M); test: X-ray crystal structure; assay type: binding; details: editing (amino-acid/adenosine) pocket
T1 construct: gene thrS; N-terminal editing domain, residues 1-143 of ThrRS, untagged, expressed in E. coli, homodimer; all rows are K121M

ApNTD [1] = target: T2, ApNTD (Aeropyrum pernix, UniProt Q9YFY3); test: ITC (also crystal structure); assay type: binding
T2 construct: gene thrS2; N-terminal editing domain, residues 1-136 of ThrRS-2, untagged, expressed in E. coli, homodimer
T2 sequence (Q9YFY3 1-136): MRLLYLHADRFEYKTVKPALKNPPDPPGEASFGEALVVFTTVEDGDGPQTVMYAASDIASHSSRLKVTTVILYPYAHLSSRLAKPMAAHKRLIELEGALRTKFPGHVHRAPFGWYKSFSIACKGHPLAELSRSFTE

ApNTD [2] = target: T3, ApNTD (Aeropyrum pernix, UniProt Q9YFY3, K116M); test: X-ray crystal structure; assay type: binding; details: editing (amino-acid/adenosine) pocket
T3 construct: gene thrS2; N-terminal editing domain, residues 1-136 of ThrRS-2, untagged, expressed in E. coli, homodimer

ApNTD [3] = target: T4, ApNTD (Aeropyrum pernix, UniProt Q9YFY3, E129A); test: X-ray crystal structure; assay type: binding; details: editing (amino-acid/adenosine) pocket
T4 construct: gene thrS2; N-terminal editing domain, residues 1-136 of ThrRS-2, untagged, expressed in E. coli, homodimer

ApNTD [4] = target: T5, ApNTD (Aeropyrum pernix, UniProt Q9YFY3, Y115A); test: X-ray crystal structure; assay type: binding; details: editing (amino-acid/adenosine) pocket
T5 construct: gene thrS2; N-terminal editing domain, residues 1-136 of ThrRS-2, untagged, expressed in E. coli, homodimer

[5] = target: N-terminal editing domain (NTD) of threonyl-tRNA synthetase from Aeropyrum pernix (Aeropyrum pernix); test: crystal structure; co-crystals with the substrate analogues L-Ser3AA or L-Thr3AA, grown at 4 °C; ApNTD in P4(1)2(1)2 with one monomer in the asymmetric unit (dimer by the crystallographic twofold); MjNTD in C2 and P2(1) with six and four monomers in the asymmetric unit
[6] = target: the molecule itself; test: as above

T1 sequence (Q9UZ14 1-143 K121M): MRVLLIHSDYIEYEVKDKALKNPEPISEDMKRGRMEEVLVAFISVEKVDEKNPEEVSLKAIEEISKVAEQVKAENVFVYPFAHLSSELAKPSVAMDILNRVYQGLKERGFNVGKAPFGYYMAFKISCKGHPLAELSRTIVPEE
T4 sequence (Q9YFY3 1-136 E129A): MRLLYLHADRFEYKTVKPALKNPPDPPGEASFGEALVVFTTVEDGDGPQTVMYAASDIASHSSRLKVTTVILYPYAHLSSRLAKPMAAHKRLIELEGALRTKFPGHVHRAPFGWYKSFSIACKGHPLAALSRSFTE
T3 sequence (Q9YFY3 1-136 K116M): as the sequence (Q9YFY3 1-136 E129A) above, with K116M, A129E counted along it
T5 sequence (Q9YFY3 1-136 Y115A): as the sequence (Q9YFY3 1-136 E129A) above, with Y115A, A129E counted along it

Kd (ApNTD [1]): 1 ± 0.3 µM
Molecule: Nc1ncnc2c1ncn2[C@@H]1O[C@H](CO)[C@@H](NC(=O)[C@@H](N)CO)[C@H]1O [L-seryl-3′-aminoadenosine]
X-ray crystal structure (PabNTD): We solved the crystal structure of K121M mutant of PabNTD

Kd (ApNTD [1]): 13.4 ± 2.9 µM
Molecule: C[C@@H](O)[C@H](N)C(=O)N[C@H]1[C@@H](O)[C@H](n2cnc3c(N)ncnc32)O[C@@H]1CO [L-threonyl-3′-aminoadenosine]
X-ray crystal structure (ApNTD [2]): K116M mutant of ApNTD with L-Ser3AA and L-Thr3AA | X-ray crystal structure (PabNTD): We solved the crystal structure of K121M mutant of PabNTD | X-ray crystal structure (ApNTD [3]): E129A mutant also showed a loosening of interactions upon L-Thr3AA binding | X-ray crystal structure (ApNTD [4]): no such loosening was observed in the case of Y115A

stoichiometry N [5]: 2
Molecule: N-terminal editing domain (NTD) of threonyl-tRNA synthetase from Aeropyrum pernix (domain or fragment)

B1: N-terminal editing domain (NTD) of threonyl-tRNA synthetase from Methanococcus jannaschii (domain or fragment, UniProt Q58597 5-143, looked up)
chain: LIHSDYLEFEAKEKTKIAEETENLKGKLDECLACFIAVEREDENNPEGTAIGAVEEIEKVANQLKVNNIVVYPYAHLSSDLSSPETAVKVLKDIESILKERGYNVLRAPFGWYKAFKISCKGHPLSELSRKIVAKEEKK
notes: N-terminal editing domain of ThrRS of Methanococcus jannaschii, residues 5-143; untagged construct (stop codon in the reverse primer); Crystallised with the substrate analogues L-Ser3AA or L-Thr3AA; also called MjNTD; MjNTD wild type
stoichiometry N [6]: 2

From PMC4491819, “Specificity and catalysis hardwired at the RNA–protein interface in a translational proofreading enzyme” (Nature Communications, 2015)
